How the values were obtained:
[1] = tested on: Salmonella, UPEC 536, E. coli MG1655 and BW25113 expressing TS7-Mut_9::sfGFP; experiment: Toehold switch reporter assay, flow cytometry, statements for all strains; assay type: cell-based, Salmonella enterica; E. coli; conditions: CPP conjugated to PNA_toe, 5 µM; for Dynamics of sfGFP upregulation: measured at 4, 6 and 17 h, all strains
Description: According to previous RNA-seq analyses ([12], [13], [22]), CPP-PNAs can strongly downregulate target mRNAs within 15 min. […] We therefore repeated the screen conducted and assayed fluorescence by flow cytometry at 4, 6, and 17 h post-treatment. […] The level of upregulation observed in the E. coli K12 strains was again substantially lower than in Salmonella and UPEC 536. […] This might be related to the stability of KFF in the culture media.
Fig 9 Flow cytometric analysis of fluorescence of sfGFP informs on delivery efficiency of CPPs. Bacterial cultures expressing the TS7-Mut_9::sfGFP reporter construct treated with the indicated CPP-PNA_toe constructs at 5 µM each. The median fluorescence intensity of sfGFP was measured after 4 h (black bars), 6 h (dark gray bars), and 17 h (light gray bars) of treatment using flow cytometry. Relative upregulation of sfGFP is shown and was calculated by dividing the median fluorescence intensity of the test samples by the median fluorescence intensity of the control samples, to which water was added. Error bars indicate the standard deviation calculated from two independent experiments.
(§1) Overnight cultures of respective bacterial strains (listed in Table S5) were diluted 1:100 in fresh MHB and grown to OD600 0.3. Overnight and secondary cultures were prepared with or without chloramphenicol (20 µg/mL) depending on the antibiotic resistance profile of the strain. Ninty-five microliters of the 0.3 OD600 bacterial suspension was distributed in the 96-well plate and mixed with 5 µL water or 20× CPP PNA working solutions (150 µM, 100 µM or 50 µM stocks in water). An equivalent volume of water was added to the bacteria to serve as untreated control. For testing the activity in other growth media (M9 minimal medium and LB), the bacteria were cultured in the respective media and treated as described above.
(§2) Bacterial cells were treated as described above, fixed with 4% paraformaldehyde (PFA) in phosphate-buffered saline (PBS) after the indicated time points, and stained with 1 µg/mL DAPI for flow cytometric measurement of DAPI-positive bacterial cells. Cell suspensions were diluted by a factor of ~100–1,000 in PBS and sampled from 96-well plates to achieve ~2,000 counts/s for flow cytometric measurements. Flow cytometry was performed using the Agilent Novocyte flow cytometer with a high-throughput sampler, and 100,000 events were recorded per sample. The DAPI fluorescence was detected using the Pacific Blue channel; sfGFP and mNeon were detected in the FITC channel, and mCherry fluorescence in the PE-Texas Red channel. The lower threshold for FSC-H was set to 2,000 to eliminate the potential artifacts from smaller particles such as dust, bubbles, or cell debris. The wild-type strains without plasmids served as a control to detect the background fluorescence, termed bacterial background. A contour plot with FSC and SSC, each with bins defined on a logarithmic scale was used to select singlets. The gating strategy is described in Fig.S6. The median fluorescence intensity was used for calculating the fold upregulation of fluorescence. Flow cytometry data sets were analyzed using the Novocyte software (Agilent).
(§3) Fold upregulation in median fluorescence intensity (FI) from flow cytometry was calculated as follows:
(§4) fold upregulation = FI (sample)−FI(bacterial background)/FI (water control)−FI(bacterial background)

[2] = tested on: Salmonella carrying the TS7::sfGFP reporter plasmid; experiment: Toehold switch reporter assay, microplate reader; assay type: cell-based, Salmonella enterica serovar Typhimurium strain SL1344; conditions: CPP conjugated to PNA_toe, 5 µM, TS7-Mut_9::sfGFP, 17 h, MHB; for Fold increase in fluorescence compared to the water-treated control: normalized to OD600
Description: Next, we tested whether 11-mer PNAs can activate the toehold switch in bacteria. We established the reporter assay in Salmonella enterica serovar Typhimurium (referred to as Salmonella hereafter), which we have previously used as a model organism for studying PNAs ([13], [17], [22]). In constructing a reporter plasmid, we cloned the TS7 sequence upstream of the coding sequence of superfolder GFP (sfGFP) and downstream of a constitutive PLtetO-1 promoter in the pXG10-SF vector ([35]) (see Materials and Methods for details). The final product is a fusion protein (TS7::sfGFP) in which the 10 amino acids from the short TS7 coding sequence are genetically linked to the N-terminus of sfGFP. We introduced the reporter plasmid in Salmonella. The bacteria were grown to an early log-phase in standard Mueller-Hinton broth (MHB), commonly used for testing antibacterial activity ([36]). As a proof-of-concept, we chose to deliver the PNAs through conjugation with (KFF)3K, a frequently used CPP (referred to as KFF hereafter). We tested two PNAs, PNA_toe as used above in vitro and a PNA that targets the mid-stem region (PNA_mid) of the switch (Fig. 2A). We treated the bacterial culture with varying concentrations (2.5 µM, 5 µM, or 7.5 µM) of the KFF-PNAs in a microtiter plate, recording GFP fluorescence and turbidity as bacterial growth continued.
as §1
(§5) The PNA-treated samples were incubated in the plate reader for 4–24 h at 37°C, with continuous double-orbital shaking (237 counts per minute). The fluorescence (λex 480 nm/λem 510 nm) and OD600 were recorded in a Synergy H1 plate reader (Biotek) by measuring every 20 min. The bacteria were sampled at various time points post-treatment and further analyzed by flow cytometry.
(§6) Normalization of fluorescence intensity (FInorm) = FI (sample)−FI (medium background)/OD
Fold upregulation in fluorescence intensity (FI) from the plate reader was calculated as follows:
fold upregulation = FI (normalized sample)/FI (normalized control)

[3] = tested on: Salmonella carrying the TS7::sfGFP reporter plasmid; experiment: Toehold switch reporter assay, flow cytometry; assay type: cell-based, Salmonella enterica serovar Typhimurium strain SL1344
Description: as §1, §5, §2, §3, §4

[4] = tested on: Salmonella ΔsbmA mutant carrying TS7-Mut_9::sfGFP; experiment: Toehold switch reporter assay, flow cytometry, ΔsbmA mutant; assay type: cell-based, Salmonella enterica serovar Typhimurium; conditions: 5 µM, 4 h
Description: To confirm that activation of the toehold-switch reporter correlates with successful uptake of PNAs, we used a Salmonella ΔsbmA mutant strain unable to express the inner membrane transporter SbmA. […] In the ΔsbmA strain, treatment with KFF-PNA_toe triggered only marginal GFP expression in a small subpopulation of cells (ca 20%) as opposed to nearly 100% of all cells in the corresponding wild-type strain (Fig. 6A). The overall fluorescence intensity (FI) of the ΔsbmA mutant was also much lower than the wild-type strain (Fig. 6B).
Fig 6 Flow cytometric analysis of CPP-PNA uptake using the toehold switch reporter in a ΔsbmA mutant of Salmonella. […] (B) Median fluorescence intensity values for water-treated control (Control, black) and PNA-treated (KFF-PNA_toe, orange) samples are given in the plots. […]
(§7) Bacterial cells were treated as described above, fixed with 4% paraformaldehyde (PFA) in phosphate-buffered saline (PBS) after the indicated time points, and stained with 1 µg/mL DAPI for flow cytometric measurement of DAPI-positive bacterial cells. […] Flow cytometry was performed using the Agilent Novocyte flow cytometer with a high-throughput sampler, and 100,000 events were recorded per sample. The DAPI fluorescence was detected using the Pacific Blue channel; sfGFP and mNeon were detected in the FITC channel, and mCherry fluorescence in the PE-Texas Red channel. […]

[5] = cited from earlier work
Description: (§8) For example, we observed a rapid but transient increase in fluorescence for some CPPs (e.g., KFF) and a sustained increase for others (e.g., RXR). This variation can likely be explained by the chemistry and stability of these carriers. […] Therefore, the different dynamics in fluorescence increase c ...

[6] = tested on: E. coli BW25113, MG1655 and UPEC 536 carrying TS7-Mut_9::sfGFP; experiment: Toehold switch reporter assay, microplate reader, E. coli strains; assay type: cell-based; conditions: CPP conjugated to PNA_toe; 5 µM; 17 h; MHB; all three E. coli strains
Description: Having established the CPP screening assay in Salmonella, we next tested it in E. coli. We chose the E. coli K12 strains BW25113 and MG1655, and the uropathogenic isolate E. coli 536 (UPEC 536). […] To test if the low fluorescence was due to lower sfGFP protein levels, we performed a western blot analysis after treating the bacteria with CPP-PNAs (Fig. S4). The upregulation of sfGFP protein correlated with fluorescence upregulation. The E. coli K12 strains were less susceptible than Salmonella. For these strains, a more sensitive method compared to the microplate reader such as flow cytometry might provide better results.
Fig 8 Examining the performance of the toehold switch assay for screening of CPPs against E. coli. Various E. coli strains carrying the TS7-Mut_9::sfGFP encoding plasmid were treated with different CPP-PNA_toe constructs at 5 µM. As negative control, an equal volume of water (Control) was added instead. (A) Fluorescence intensity of sfGFP was recorded in a microplate reader for 17 h post-treatment measured in a microplate reader. (B) Upregulation in sfGFP fluorescence calculated relative to the water control based on the normalized fluorescence intensities at 17 h post-treatment. The experiment was performed two times, and bars indicate the mean value; error bars indicate the standard deviation from two independent experiments.
Overnight cultures of respective bacterial strains (listed in Table S5) were diluted 1:100 in fresh MHB and grown to OD600 0.3. […]
as §5, §6
Fold upregulation in fluorescence intensity (FI) from the plate reader was calculated as follows: […]

[7] = tested on: E. coli BW25113 expressing TS7-Mut_9::sfGFP; experiment: Toehold switch reporter assay, flow cytometry; assay type: cell-based; conditions: CPP conjugated to PNA_toe, 5 µM, 17 h
Description: as §1, with “For testing the activity in other growth media (M9 minimal medium and LB), the bacteria were cultured in the respective media and treated as described above.” left out
as §5
as §7, with “sample.” for “sample. The DAPI fluorescence was detected using the Pacific Blue channel; sfGFP and mNeon were detected in the FITC channel, and mCherry fluorescence in the PE-Texas Red channel.”

bacteria = conditions: CPP conjugated to anti-acpP PNA; ref [13]; cited from earlier work
Description: as §8

## GRRRRRRRRRPPQ [R9-TAT, cell-penetrating peptide …]
[1]
  Dynamics of sfGFP upregulation: only showed upregulation at the 17 h time point
[2]
  Fold increase in fluorescence compared to the water-treated control: negligible upregulation

## KFFKFFKFFK [KFF-PNA_ctrl]
[3]; TS7::sfGFP, 7.5 µM, 4 h post-treatment, MHB
  Activation of GFP expression: did not activate GFP expression

## KFFKFFKFFK [KFF-PNA_toe]
[4]
  GFP positive population: ~20%
[3]; TS7-Mut_9::sfGFP, 5 µM, 4 h, Luria broth (LB)
  Upregulation of the reporter (median fluorescence vs water control): 6- to 8 fold
[3]; TS7-Mut_9::sfGFP, 5 µM, 4 h, M9 minimal medium
  Activation of the reporter (median fluorescence vs water control): 50- to 60 fold
[3]; TS7-Mut_9::sfGFP, 5 µM, 4 h, MHB, two independent experiments
  Activation of the reporter (median fluorescence vs water control): 50- to 60 fold
[3]; TS7-Mut_13::sfGFP, 5 µM, 4 h, MHB
  Activation of the reporter compared with the original switch: no improvement over the original switch
[3]; TS7-Mut_18::sfGFP, 5 µM, 4 h, MHB
  Activation of the reporter compared with the original switch: no improvement over the original switch
[3]; original TS7::sfGFP, 4 h, MHB
  Upregulation of the reporter (median fluorescence vs water control): around 30 fold
[3]; wild-type, TS7-Mut_9::sfGFP, 5 µM, 4 h
  GFP positive population: ~100%

## KFFKFFKFFK [cell-penetrating peptide …, carrier for PNA]
[1]; 4, 6 and 17 h
  Change of fluorescence over time: decrease
[1]
  Dynamics of sfGFP upregulation: rapid upregulation at 4 h
[5]
  Stability to proteases and in culture medium: sensitive to proteases and degraded in nutrient-rich media such as MHB
[2]
  Fold increase in fluorescence compared to the water-treated control: highest fold increase in fluorescence
  Speed of increase in fluorescence signal: rapid increase in fluorescence signal
[6]
  Reporter activation (sfGFP fluorescence vs water control): highest reporter activation

## RKKRRQRR [Seq35, cell-penetrating peptide RKKRRQRR]
[1]
  Dynamics of sfGFP upregulation: only showed upregulation at the 17 h time point

## RQIKIWFQNRRMKWKK [ANT, cell-penetrating peptide …]
[1]
  Dynamics of sfGFP upregulation: rapid upregulation at 4 h
[2]
  Fold increase in fluorescence compared to the water-treated control: highest fold increase in fluorescence

## RRRQRRKKRGY [Seq118, cell-penetrating peptide …]
[1]
  Dynamics of sfGFP upregulation: only showed upregulation at the 17 h time point
[7]
  Reporter activation (fold upregulation of sfGFP vs water control): fivefold

## RRRRR [R5, cell-penetrating peptide RRRRR]
[1]
  Dynamics of sfGFP upregulation: only showed upregulation at the 17 h time point

## RRWQW [L5a, cell-penetrating peptide RRWQW]
[2]
  Fold increase in fluorescence compared to the water-treated control: negligible upregulation

## RXRRXRRXRRXRXB [RXR-acpP, RXR conjugated to anti-acpP PNA …]
bacteria
  Time after which bacteria are eradicated: 15 min

## RXRRXRRXRRXRXB [cell-penetrating peptide RXRRXRRXRRXRXB, carrier for PNA]
[1]
  Dynamics of sfGFP upregulation: rapid upregulation at 4 h
[5]; unconjugated carrier peptide, ref [47]
  Stability to proteolytic degradation: resistant to proteolytic degradation
[2]
  Fold increase in fluorescence compared to the water-treated control: highest fold increase in fluorescence
  Speed of increase in fluorescence signal: rapid increase in fluorescence signal
[6]
  Reporter activation (sfGFP fluorescence vs water control): highest reporter activation

## VALLPAVLLA [Seq23, cell-penetrating peptide …]
[1]
  Dynamics of sfGFP upregulation: least active carrier
[2]
  Fold increase in fluorescence compared to the water-treated control: none
[6]
  Reporter activation (sfGFP fluorescence vs water control): least effective PNA carrier
